Data published in patent US11834440B2, “Beta-lactam derivatives for the treatment of diseases” (Insilico Medicine IP Limited, priority 2021, dated 2023).

Molecular target: QPCTL (Homo sapiens (Human), UniProt Q9NXS2)
Assay: QPCTL inhibition, SensoLyte Green Glutaminyl Cyclase Activity Assay
Type: biochemical
Conditions: 0.8 nM 2x enzyme solution, 45 min at 37° C., 50 mM Tris pH 8.0, 1% DMSO
Procedure: Preparation of working solution: 2×Glutaminyl Cyclase substrate was diluted in assay buffer to […]. 2×enzyme solution and QPCTL was diluted in assay buffer to 0.8 nM. Glutaminyl Cyclase Developer was diluted in assay buffer to 1×(containing 10 mM 1-Benzyl-Imidazole). Serial dilution of test compounds was performed in DMSO. The final DMSO concentration in 100 μl reaction was 1%. The assay buffer was 50 mM Tris, pH 8.0, 0.01% BSA.
Procedure: 50 μL of 2×Glutaminyl Cyclase substrate solution was added into the assay plate followed by 50 μL of 2×enzyme solution. The plate was centrifuged for 1 min at 1000 rmp. Next the plate was incubated for 45 minutes at 37° C. This was followed by the additional of 50 μL of the prepared Glutaminyl Cyclase developer and incubated for additional 30 min at 37° C. Results were read on SpectraMax Paradigm detecting with emission at Ex/Em=490 nm/520 nm.
A Z′ value was calculated for each assay plate. The Z′ value must be >0.5 or the plate was disqualified. […] Results were calculated using GraphPad Prism 7 software is used for IC50 determination.

QPCTL, sequence (Q9NXS2 whole entry, species assumed): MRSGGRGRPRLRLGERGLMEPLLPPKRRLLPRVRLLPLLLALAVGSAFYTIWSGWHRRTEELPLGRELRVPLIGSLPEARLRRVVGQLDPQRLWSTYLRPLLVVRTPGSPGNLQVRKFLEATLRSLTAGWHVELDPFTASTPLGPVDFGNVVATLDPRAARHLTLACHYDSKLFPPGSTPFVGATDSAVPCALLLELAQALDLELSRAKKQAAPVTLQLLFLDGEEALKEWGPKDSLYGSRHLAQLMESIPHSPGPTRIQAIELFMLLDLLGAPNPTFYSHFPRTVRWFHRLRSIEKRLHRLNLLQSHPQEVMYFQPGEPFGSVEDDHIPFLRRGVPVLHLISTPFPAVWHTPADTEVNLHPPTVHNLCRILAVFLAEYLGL

Row | IC50 [nM] | SMILES
1 | < 2 | O=C1[C@H](C2CC2)[C@H](c2c(F)cc(-c3ccc(C(F)(F)F)nn3)cc2F)N1c1ccc2[nH]cnc2c1 (single isomer, unassigned) [Compound 52B]
2 | < 2 | O=C1[C@H](C2CC2)[C@H](c2c(F)cc(-c3cnccn3)cc2F)N1c1ccc2[nH]cnc2c1 (single isomer, unassigned) [Compound 53B]
3 | < 2 | O=C1[C@H](CC(F)(F)F)[C@H](c2c(F)cc(-c3cnn(C(F)(F)F)c3)cc2F)N1c1ccc2[nH]cnc2c1 (single isomer, unassigned) [Compound 54B]
4 | 25 to 1000 | O=C1[C@@H](C2CC2)[C@@H](c2ccc(-c3cnn(C(F)(F)F)c3)cc2)N1c1ccc2[nH]cnc2c1 (single isomer, unassigned) [Compound 55A]
5 | < 2 | O=C1[C@H](C2CC2)[C@H](c2ccc(-c3cnn(C(F)(F)F)c3)cc2)N1c1ccc2[nH]cnc2c1 (single isomer, unassigned) [Compound 55B]
6 | 25 to 1000 | Cc1cc(-c2cnn(C(F)(F)F)c2)ccc1[C@@H]1[C@H](C2CC2)C(=O)N1c1ccc2[nH]cnc2c1 (single isomer, unassigned) [Compound 56A]
7 | < 2 | Cc1cc(-c2cnn(C(F)(F)F)c2)ccc1[C@H]1[C@@H](C2CC2)C(=O)N1c1ccc2[nH]cnc2c1 (single isomer, unassigned) [Compound 56B]
8 | 25 to 1000 | Cc1cc([C@@H]2[C@H](C3CC3)C(=O)N2c2ccc3[nH]cnc3c2)ccc1-c1cnn(C(F)(F)F)c1 (single isomer, unassigned) [Compound 57A]
9 | < 2 | Cc1cc([C@H]2[C@@H](C3CC3)C(=O)N2c2ccc3[nH]cnc3c2)ccc1-c1cnn(C(F)(F)F)c1 (single isomer, unassigned) [Compound 57B]
10 | < 2 | O=C1[C@H](C2CC2)[C@H](c2c(F)cc(-n3cc(C(F)(F)F)cn3)cc2F)N1c1ccc2[nH]cnc2c1 (single isomer, unassigned) [Compound 58B]
11 | < 2 | O=C1[C@H](C2CC2)[C@H](c2c(F)cc(-n3cc(C(F)(F)F)nn3)cc2F)N1c1ccc2[nH]cnc2c1 (single isomer, unassigned) [Compound 59B]
12 | < 2 | O=C1[C@H](C2CC2)[C@H](c2c(F)cc(-n3ncc(C(F)(F)F)n3)cc2F)N1c1ccc2[nH]cnc2c1 (single isomer, unassigned) [Compound 60B]
13 | < 2 | O=C1[C@H](C2CC2)[C@H](c2c(F)cc(-n3cnc(C(F)(F)F)c3)cc2F)N1c1ccc2[nH]cnc2c1 (single isomer, unassigned) [Compound 61B]
14 | < 2 | Cc1cc(-c2cc(F)c([C@H]3[C@@H](C4CC4)C(=O)N3c3ccc4[nH]cnc4c3)c(F)c2)on1 (single isomer, unassigned) [Compound 62B]
15 | < 2 | Cc1oncc1-c1cc(F)c([C@H]2[C@@H](C3CC3)C(=O)N2c2ccc3[nH]cnc3c2)c(F)c1 (single isomer, unassigned) [Compound 63B]
16 | 2 to 25 | Cc1noc(C)c1-c1cc(F)c([C@H]2[C@@H](C3CC3)C(=O)N2c2ccc3[nH]cnc3c2)c(F)c1 (single isomer, unassigned) [Compound 64B]
17 | < 2 | Cc1ccc(-c2cc(F)c([C@H]3[C@@H](C4CC4)C(=O)N3c3ccc4[nH]cnc4c3)c(F)c2)nn1 (single isomer, unassigned) [Compound 65B]
18 | 25 to 1000 | Cc1cc(-c2cnn(C(F)(F)F)c2)ncc1[C@@H]1[C@H](C2CC2)C(=O)N1c1ccc2[nH]cnc2c1 (single isomer, unassigned) [Compound 66A]
19 | < 2 | Cc1cc(-c2cnn(C(F)(F)F)c2)ncc1[C@H]1[C@@H](C2CC2)C(=O)N1c1ccc2[nH]cnc2c1 (single isomer, unassigned) [Compound 66B]
20 | 25 to 1000 | Cc1cc(-c2ccc(C(F)(F)F)nn2)ccc1[C@@H]1[C@H](C2CC2)C(=O)N1c1ccc2[nH]cnc2c1 (single isomer, unassigned) [Compound 67A]
21 | < 2 | Cc1cc(-c2ccc(C(F)(F)F)nn2)ccc1[C@H]1[C@@H](C2CC2)C(=O)N1c1ccc2[nH]cnc2c1 (single isomer, unassigned) [Compound 67B]
